{"source": "patent US20120149724A1", "about": "“MODULATING ENDOGENOUS BETA-ENDORPHIN LEVELS” (THE GENERAL HOSPITAL CORPORATION, priority 2009, published 2012)", "format_in_all_cases": "in vivo", "key": {"Sprague-Dawley rats": {"test_system": "Sprague-Dawley rats", "assay": "actimetry (locomotor activity) in rats over a daily tail radiation regimen", "conditions": "2 Gy/day tail radiation for 6 weeks; 1 mg/kg ip 15 minutes before actimetry", "procedure": "Eight week old male Sprague-Dawley rats underwent a 6-week regimen of 2 Gy/day daily tail radiation of mock exposure. Prior to the start of the regimen, baseline activity was recorded as total distance traveled in 30 minutes in the actimetry chamber. During the regimen and for 2 weeks following the end of the regimen, actimetry measurements were made once per week, and for these measurements, half of the tail-irradiated rats and half of the mock-exposed rats were injected with naloxone (1 mg/kg, ip) 15 minutes prior to actimetry testing, and the other half of tail-irradiated and mock-exposed animals were injected with saline (ip) 15 minutes prior to actimetry testing. In addition, blood was drawn prior to, once weekly during, and once weekly for 2 weeks following the end of the regimen for β-endorphin measurement. […] Top graphs show results for tail-irradiated rats, bottom graphs show results for mock-exposed controls. Left side graphs show results for rats injected with saline prior to actimetry testing, right side graphs show results for rats injected with naloxone prior to actimetry testing. […] Error bars indicate +/−SEM, and (*) indicates p<0.05 by two-tailed Student's t-test with respect to baseline values for that group."}, "UV-exposed C57BL/6 mice": {"test_system": "UV-exposed C57BL/6 mice", "assay": "pain thresholds (von Frey and hot plate) over daily low-dose UVB exposure", "conditions": "UVB 50 mJ/cm2/day, 5 days/week for 6 weeks, 10 mg/kg ip 15 minutes before testing", "procedure": "To obtain the data shown in FIGS. 7A, 7B and 7C, eight-week-old male C57BL/6 mice were dorsally depilated and either exposed to 50 mJ/cm2/day or mock exposed 5 days/week for 6 weeks. Blood was drawn prior to, once weekly during, and once weekly for 2 weeks following the end of the regimen for β-endorphin measurement. In addition, pain thresholds in both the von Frey and hot plate assay were measured prior to, twice weekly during, and twice weekly for 2 weeks following the end of the regimen. One subgroup of UV-exposed mice and one subgroup of mock-treated mice were injected with naloxone (10 mg/kg, ip) and another subgroup of UV-exposed mice and mock-treated mice were injected with saline (ip) 15 minutes prior to each pain threshold testing. Pain threshold measurements were taken on 2 non-consecutive days and on a different day from the blood draws each week. […] Error bars indicate +/−SEM. […] Error bars indicate +/− standard deviation. […]\nEight-week-old male C57BL/6 mice were dorsally depilated and either exposed to 50 mJ/cm2/day or mock exposed 5 days/week for 6 weeks. […] In addition, pain thresholds in both the von Frey and hot plate assay were measured prior to, twice weekly during, and twice weekly for 2 weeks following the end of the regimen. […]"}, "[1]": {"test_system": "tail-irradiated C57BL/6 mice", "assay": "Straub Tail scoring in tail-irradiated mice", "conditions": "10 mg/kg ip after the 17th tail irradiation (5 Gy/day); rescored 20 minutes after injection", "procedure": "To obtain the data shown in FIG. 3C, after the 17th irradiation dose, the mice were measured for Straub Tail scores and the irradiated mice were divided into two subgroups. The first subgroup was injected with 10 mg/kg naloxone ip. The second subgroup was injected with saline ip. Straub Tail scores were then rescored 20 minutes after the injection. FIG. 3C uses data obtained by Wild type female mice. […] The saline injection has no effect on the Straub Tail phenotype.\nMice undergoing tail radiation or mock treatment were assessed for Straub Tail according to a slightly modified method of Zarrindast, M. R., Ghadimi, M., Ramezani-Tehrani, B., and Sahebgharani, M. Effect of GABA Receptor Agonists or Antagonists on Morphine-induced Straub Tail in Mice. […] 2006; 116(8): 963-73, by which Straub tail is scored on a scale of 0-2 according to the angle of elevation of the tail from the horizontal plane (0=tail relaxed and no elevation; 1=tail is rigid and slightly elevation 1-10° from horizontal; 1.5=11-45 degree elevation with rigidity at the base of the tail; 2=46-90° elevation with rigidity at the base of the tail). For each measurement, each mouse is scored every 10 seconds for 1 minute, and the final score for each mouse at a given measurement point is the average of these 7 values. […] After the 17th irradiation, all mice were scored as described above immediately following tail radiation. […]"}}, "note": "Entries after “also recorded” stand apart in the source; their conditions may differ."}
{"smiles": "C=CCN1CC[C@]23c4c5ccc(O)c4O[C@H]2C(=O)CC[C@@]3(O)[C@H]1C5", "note": "[naloxone]", "values": [{"measurement": "effect on radiation-induced lethargy (total distance traveled in 30 minutes)", "setting": "Sprague-Dawley rats", "result": "Naloxone-Reversible Lethargy"}, {"measurement": "effect on UV-induced changes in pain thresholds / opioid-mediated phenotypes", "setting": "UV-exposed C57BL/6 mice", "result": "naloxone-reversible; also recorded: reversed"}, {"measurement": "effect on Straub Tail score", "setting": "[1]", "result": "abolished to near mock-treated levels; also recorded: reversed the Straub Tail, similar to mock-treated levels"}]}
